Consider 2 compounds from paper PMC4718634, “Murine GPRC6A Mediates Cellular Responses to L-Amino Acids, but Not Osteocalcin Variants” (PLoS ONE, 2016).

Experiment [1] relates to non-tetracycline induced or parental HEK293 cells. The experiment is described as follows: Inositol phosphate accumulation, parental or non-tetracycline-induced HEK293 cells. As to conditions: G protein-transfected parental HEK293 or non-tetracycline-induced cells; Fig 1B.
Experiment [2] deals with GPRC6A-expressing cell lines or mouse pancreatic islets. As to conditions: ref [31]; cited from earlier work. An excerpt: (§1) The involvement of GPRC6A has been shown by transfection of receptor-specific siRNA, receptor blockade with a polyclonal antibody and, in the case of the islets, using tissue from KO mice.
The test system of another experiment is GPRC6A. To be noted: GPRC6A-expressing cell lines or mouse pancreatic islets; ref [29]; cited from earlier work.
Source text: as §1

The test system of a further experiment is mouse pancreatic islets. The experiment is described as follows: Insulin release from mouse pancreatic islets. As to conditions: OCN 0.03–100 ng/ml; both glucose concentrations; 90 min; n = 2; S3 Fig B. The class given is cell-based. As to the method: Islets were collagenase-isolated from mice (10 x C57Bl/6; 12–13 weeks; Charles River) and incubated overnight in RPMI (with 10% FBS (v/v), 10 mM HEPES, 100 U/ml penicillin, 100 μg/ml streptomycin, sodium pyruvate and 10 mM glucose) at 37°C in 5% CO2. Islets were seeded into a 96-well plate (4 / well) in Kreb’s buffer containing 2.8 mM glucose and washed twice with the same buffer. 200 μl test drugs were added in Kreb’s buffer with the required concentration of glucose and incubated at 37°C in 5% CO2 for 90 min. The plate was centrifuged for 10 s at 200 g, supernatant recovered and insulin levels detected as described above. This protocol was approved by the IDRS (Institut de Recherches Servier) Institutional Animal Care and Use Committee.
Concentration-response data were analysed using a three or four parameter logistic function (Motulsky & Christopoulos, 2004) to generate estimates of agonist potency (LogEC50). Data for all HEK293 assays represent the mean ± SEM of at least three independent experiments (except cell impedance, n = 2). For GLP-1 release, the data represent mean ± SEM of three to five independent experiments (except for OCN, wash; n = 2). For insulin release assays, data represent the mean ± SEM of three independent experiments (except for islet studies; n = 2). Insulin release data were normalised to the response to vehicle in either low or high [glucose]. Statistical analysis for GLP-1 release data were performed by one-way ANOVA, followed by Sidak’s multiple comparisons test (treating wash / no wash datasets separately). Statistical analyses for insulin release data were performed by two-way ANOVA (with [glucose] and drug treatment as group variables), followed by Sidak’s multiple comparisons test. Where only high [glucose] groups were evaluated, statistical analysis was by one-way ANOVA followed by Sidak’s multiple comparisons test.

The next experiment concerns mouse GPRC6A. As to conditions: ref [13]; cited from earlier work. From the text:
Additional interest in GPRC6A has emerged due to several studies reporting that it mediates the metabolic and endocrine effects of the de-carboxylated form of the osteoblast-derived peptide, osteocalcin (OCN). […] Given these discrepancies, we sought to evaluate the pharmacology of human and mouse GPRC6A in a range of cell signalling assays ...

For experiment [3], the system named is immortalised cell lines (e.g. pancreatic β-cells). As to conditions: ref [12], cited from earlier work. An excerpt: (§2) Additional interest in GPRC6A has emerged due to several studies reporting that it mediates the metabolic and endocrine effects of the de-carboxylated form of the osteoblast-derived peptide, osteocalcin (OCN). […] By examining cell signalling events downstream of recombinantly expressed mouse GPRC6A and phenotypic assays in cell lines endogenously expressing the Gprc6a transcript, we confirmed that GPRC6A is a receptor for basic L-amino acids, but were unable to detect any effect of OCN variants, irrespective of peptide species or source. GPRC6A has emerged in recent years as an interesting target due to its putative role in med ...

A further experiment deals with mice. As to conditions: [21], cited from earlier work.
Source text: as §2

The subject of another experiment is βTC-6 cells. To be noted: GPRC6A-dependent; ref [12]; cited from earlier work. From the text:
Given the range of OCN variants profiled, we propose that species and/or carboxylation status is unlikely to be a cause of the lack of activity in our assays. Other potential explanations are that the species of GPRC6A is critical or that HEK293 cells lack the necessary scaffolding and/or signalling proteins found in cells endogenously expressing GPRC6A. Unfortunately, human GPRC6A was not expressed at the cell surface in our cells, precluding a study of its pharmacology. However, we identified a range of immortalised murine entero-endocrine and pancreatic β-cell lines that express Gprc6a mRNA ...

“Also recorded” adds a separate entry of the source.

For the compound `NCCC[C@H](N)C(=O)O` [L-ornithine], the “inositol phosphate response in non-expressing cells” value in experiment [1] is listed as “absent in non-tetracycline induced or parental HEK293 cells”.

Turning to “OCN: osteoblast-derived peptide, osteocalcin; variant not specified at the place (YLYQWLGAPVPYPDPLEPRREVCELNPDCDELADHIGFQEAYRRFYGPV; UniProt P02818 52-100, looked up)”, the β-cell proliferation entry in experiment [2] was “increased β-cell proliferation”. For the same compound, the intracellular calcium mobilisation result in the experiment on GPRC6A was “cause intracellular calcium mobilisation”. Further, the “insulin secretion, OCN” value in the experiment with mouse pancreatic islets is “no effect on insulin release; also recorded: failed to induce GSIS”. In addition, in the experiment on mouse GPRC6A, the “agonist activity of OCN at mouse GPRC6A” value was “no agonist effect of OCN was evident in any of the assays profiled; also recorded: failed to replicate either the agonist activity of OCN”. Further, the insulin release entry in experiment [3] (blocked by siRNA targeting Gprc6a, [22]) is “OCN-mediated insulin and glucagon-like peptide (GLP)-1 release”. Besides, the “insulin secretion in vitro and ex vivo” value in experiment [3] ([20], [21]) is “promoting insulin secretion in vitro and ex vivo”. Further, in the experiment on mice (mice, ref [20]), the “β-cell proliferation, insulin release, insulin sensitivity, energy expenditure, testosterone synthesis” value was “increase pancreatic β-cell proliferation, insulin release from pancreatic islets, insulin sensitivity and energy expenditure and testosterone synthesis in the gonads in mice”. For the same compound, the “β-cell proliferation, insulin sensitivity, energy expenditure” value in the experiment on mice (ref [12], [20]) was “can increase pancreatic β-cell proliferation, insulin sensitivity and energy expenditure in vivo”. For the same compound, in the experiment with βTC-6 cells, the ERK1/2 phosphorylation result is listed as “engender ERK1/2 phosphorylation”.
